# Measured values from US20240368710A1, “STREAMLINED PLATFORM FOR BACTERIAL IDENTIFICATION AND ANTIBIOTIC SUSCEPTIBILITY TEST” (THE JOHNS HOPKINS UNIVERSITY, priority 2017, published 2024).
# Experiments:
# E. coli = assay: bulk qPCR/HRMA antibiotic susceptibility test (growth by 16S rDNA Cq); type: cell-based, Escherichia coli; conditions: for Cq value compared to the no-drug (growth) controls: 2 hours of incubation with gentamicin (1 μg/mL, FIG. 6A)
# Description: (§1) FIG. 1 illustrates a protocol for combined ID (Identification of pathogen species) and AST (antibiotic susceptibility test) in bulk format. The protocol begins by dividing the sample into 2 portions; with and without antibiotic followed by brief incubation. Then, the cultured samples are added into PCR mixture to perform qPCR & HRMA. An additional step of DNA isolation may be performed prior to PCR. AST is determined based on Cq differences (ΔCq) and ID is obtained from HRMA based classification.
# FIG. 5A-5B illustrates the comparison between the proposed AST approaches to conventional broth microdilutional method. […] (b) Conventional broth microdilutional method of the same drug concentration with overnight incubation.
# (§2) FIG. 6A-6C illustrates an integrated broad-scale pathogen identification and growth detection via qPCR and HRMA. (a) Measurement of bacterial growth of E. coli and S. aureus under treatment of gentamicin (1 μg/mL) via qPCR detection of 16S rDNA. The growth status and antibiotic susceptibility of bacteria were determined by comparing the Cq value to the no-drug control. (b) Measured melt curves from amplicons of E. coli and S. aureus for both sensitive and resistant strands. […]
# (§3) The inventors have designed an assay protocol to enable combined ID and AST into a single step process (FIG. 1) and using the whole blood sample as an example (FIG. 4). […] The subsequent translation to the microfluidic single-cell assay in described below can facilitate digital diagnostics with enhanced sensitivity, specificity and quantification capability.
# The present invention measures bacterial growth by quantifying the bacterial DNA content using qPCR. […] When performing AST, the sample from culture tubes are added to PCR mixes immediately after brief bacterial culture for subsequent detection and quantification of bacterial DNA via qPCR. The quantification cycle (Cq) value indicates the difference in growth rate of different strains under the drug treatment; thereby the antibiotic susceptibility can be determined. […]
# S. aureus [1] = assay: digital PCR/HRMA AST of mixed sample in 96-well plate; type: cell-based, Staphylococcus aureus; conditions: sensitive strain in mix with E. faecalis; 2 hours with and without 8 μg/mL of gentamicin; DNA diluted 60000-fold
# Description: (§4) FIG. 2 illustrates a protocol for combined ID and AST using digital detection. The protocol begins by dividing the sample into 2 portions; with and without antibiotic followed by brief incubation. DNA isolation can be performed to extract bacterial DNA from the samples. Then, the samples are mixed with PCR mixture and diluted across very large number of isolated small volume reactions so that there is either zero or one bacterial DNA present in any individual reaction to perform digital PCR & digital HRMA. ID is obtained from HRMA based classification on each positive reactions. AST of each target bacterial species is determined by comparing the quantity of the DNA of the target bacteria from the 2 portions which indicates by the total number of positive identification associated to the identified target bacteria species.
# (§5) FIG. […] Orange lines represent S. aureus and blue lines represent E. faecalis. (a) Melt curves from the sample incubated without gentamicin (b) Melt curves from the sample incubated with gentamicin (c) AST can be determined using absolute count of each species which bases on the total number of positive reactions of each specific melt curve from HRMA.
# (§6) This method (FIG. 2) begins by splitting the sample to incubate with and without antibiotic. […] The species of unidentified bacteria in each positive reactions is then determined preferably using HRMA. […]
# S. aureus [2] = assay: bulk qPCR/HRMA antibiotic susceptibility test (growth by 16S rDNA Cq); type: cell-based, Staphylococcus aureus; conditions: 2 hours of incubation with gentamicin (1 μg/mL, FIG. 6A)
# Description: as §1
# as §2, with “(a) Measurement of bacterial growth of E. coli and S. aureus under treatment of gentamicin (1 μg/mL) via qPCR detection of 16S rDNA.” left out
# as §3
# The present invention measures bacterial growth by quantifying the bacterial DNA content using qPCR. […]
# E. faecalis = assay: digital PCR/HRMA AST of mixed sample in 96-well plate; type: cell-based, Enterococcus faecalis; conditions: sensitive strain in mix with S. aureus; 2 hours with and without 8 μg/mL of gentamicin; DNA diluted 60000-fold
# Description: as §4, §5, §6
substance,measurement,setting,value
gentamicin,MIC range by ΔCq approach,"E. coli; E. coli sensitive strain, gentamicin 0.125-8 μg/mL, FIG. 5",corresponds to standard CLSI MIC value and the conventional method
same,Cq value compared to the no-drug (growth) controls,E. coli; resistant strand of E. coli,close to the no-drug controls
same,Cq value compared to the no-drug (growth) controls,E. coli; sensitive strand of E. coli,increased Cq value
same,count of no-gentamicin controls greater than gentamicin-treated samples,S. aureus [1],3-5 folds
same,Cq value compared to the no-drug (growth) controls,S. aureus [2]; resistant strand of S. aureus,close to the no-drug controls
same,Cq value compared to the no-drug (growth) controls,S. aureus [2]; sensitive strand of S. aureus,increased Cq value
same,count of no-gentamicin controls greater than gentamicin-treated samples,E. faecalis,3-5 folds
